Reference: paper PMC9506414, “Novel 2,6,9-Trisubstituted Purines as Potent CDK Inhibitors Alleviating Trastuzumab-Resistance of HER2-Positive Breast Cancers” (Pharmaceuticals, 2022)
Where two headings read alike, the source gives them in different places.

Tests used:
[1] = tested on: HCC1954 cells; test: Antiproliferation assay (Cell-titer Glo, 72 h); assay type: cell-based; conditions: Homo sapiens
Summary of the method: (§1)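 Cells in RPMI/10% FBS were seeded at 5000 (SK-Br3) or 1000 (HCC-1954) per well and allowed 24 h to settle. Compounds were pin-transferred as 3-fold, 10-point duplicate series from a 10 mM stock and incubated 72 h at 37 °C. Viability was read by CellTiter-Glo luminescence and IC50 obtained by curve fitting.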

[2] = tested on: SK-Br3 cells; test: Antiproliferation assay (Cell-titer Glo, 72 h); assay type: cell-based; conditions: Homo sapiens, SK-BR-3
Summary of the method: as §1

[3] = target: T1, CYP1A2 (Homo sapiens, UniProt P05177); test: CYP inhibition; assay type: in vitro ADME
T1 sequence (P05177 1-516): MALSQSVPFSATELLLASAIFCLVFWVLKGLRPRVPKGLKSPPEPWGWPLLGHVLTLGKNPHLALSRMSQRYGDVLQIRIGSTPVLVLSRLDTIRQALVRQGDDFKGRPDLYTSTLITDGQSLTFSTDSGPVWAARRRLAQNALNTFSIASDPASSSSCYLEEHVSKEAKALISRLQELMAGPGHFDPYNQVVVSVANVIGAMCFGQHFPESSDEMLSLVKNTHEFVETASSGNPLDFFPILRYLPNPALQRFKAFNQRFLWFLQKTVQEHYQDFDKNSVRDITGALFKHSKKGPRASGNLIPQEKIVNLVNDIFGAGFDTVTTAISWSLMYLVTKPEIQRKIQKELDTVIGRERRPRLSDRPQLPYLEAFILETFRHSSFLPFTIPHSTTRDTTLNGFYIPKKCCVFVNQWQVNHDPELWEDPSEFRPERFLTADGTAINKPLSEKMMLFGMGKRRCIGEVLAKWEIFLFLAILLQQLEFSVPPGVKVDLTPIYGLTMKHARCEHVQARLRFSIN
Method: Table 6 In vitro liver metabolic stability and activity against CYPs of potent analogues. | column: CYP % Activity at 10 μM / 1A2

[4] = target: CYP2C9 (Homo sapiens, UniProt P11712); test: CYP inhibition; assay type: in vitro ADME
Sequence of CYP2C9 (P11712 whole entry): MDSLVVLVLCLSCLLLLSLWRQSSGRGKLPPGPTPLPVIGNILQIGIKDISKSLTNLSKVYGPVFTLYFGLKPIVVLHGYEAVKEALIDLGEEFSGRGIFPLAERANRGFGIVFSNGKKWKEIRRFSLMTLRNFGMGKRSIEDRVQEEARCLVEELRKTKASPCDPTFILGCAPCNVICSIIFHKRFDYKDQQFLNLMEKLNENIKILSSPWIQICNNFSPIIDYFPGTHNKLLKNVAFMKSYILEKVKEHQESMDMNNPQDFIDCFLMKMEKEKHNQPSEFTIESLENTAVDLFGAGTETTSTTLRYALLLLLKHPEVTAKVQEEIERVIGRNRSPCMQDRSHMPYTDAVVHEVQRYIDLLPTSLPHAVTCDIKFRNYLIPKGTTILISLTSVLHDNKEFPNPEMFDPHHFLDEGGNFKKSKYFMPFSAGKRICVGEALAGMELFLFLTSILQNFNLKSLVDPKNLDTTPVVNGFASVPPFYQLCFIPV
Method: Table 6 In vitro liver metabolic stability and activity against CYPs of potent analogues. | column: CYP % Activity at 10 μM / 2C9

[5] = target: CYP2C19 (Homo sapiens, UniProt P33261); test: CYP inhibition; assay type: in vitro ADME
Sequence of CYP2C19 (P33261 whole entry): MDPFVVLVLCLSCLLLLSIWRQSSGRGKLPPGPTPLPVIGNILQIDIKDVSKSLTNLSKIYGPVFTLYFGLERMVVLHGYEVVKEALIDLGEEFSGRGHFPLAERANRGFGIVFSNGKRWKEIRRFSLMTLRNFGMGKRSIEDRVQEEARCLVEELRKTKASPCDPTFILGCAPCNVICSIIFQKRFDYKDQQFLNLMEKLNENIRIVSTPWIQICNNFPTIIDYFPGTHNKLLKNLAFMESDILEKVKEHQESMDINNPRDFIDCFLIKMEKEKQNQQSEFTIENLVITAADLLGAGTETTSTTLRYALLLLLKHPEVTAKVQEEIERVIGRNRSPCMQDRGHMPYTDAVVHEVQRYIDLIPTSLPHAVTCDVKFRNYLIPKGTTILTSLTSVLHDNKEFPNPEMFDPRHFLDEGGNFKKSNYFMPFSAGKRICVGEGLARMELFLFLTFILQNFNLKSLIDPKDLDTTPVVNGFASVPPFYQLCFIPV
Method: Table 6 In vitro liver metabolic stability and activity against CYPs of potent analogues. | column: CYP % Activity at 10 μM / 2C19

[6] = target: CYP2D6 (Homo sapiens, UniProt P10635); test: CYP inhibition; assay type: in vitro ADME
Sequence of CYP2D6 (P10635 whole entry): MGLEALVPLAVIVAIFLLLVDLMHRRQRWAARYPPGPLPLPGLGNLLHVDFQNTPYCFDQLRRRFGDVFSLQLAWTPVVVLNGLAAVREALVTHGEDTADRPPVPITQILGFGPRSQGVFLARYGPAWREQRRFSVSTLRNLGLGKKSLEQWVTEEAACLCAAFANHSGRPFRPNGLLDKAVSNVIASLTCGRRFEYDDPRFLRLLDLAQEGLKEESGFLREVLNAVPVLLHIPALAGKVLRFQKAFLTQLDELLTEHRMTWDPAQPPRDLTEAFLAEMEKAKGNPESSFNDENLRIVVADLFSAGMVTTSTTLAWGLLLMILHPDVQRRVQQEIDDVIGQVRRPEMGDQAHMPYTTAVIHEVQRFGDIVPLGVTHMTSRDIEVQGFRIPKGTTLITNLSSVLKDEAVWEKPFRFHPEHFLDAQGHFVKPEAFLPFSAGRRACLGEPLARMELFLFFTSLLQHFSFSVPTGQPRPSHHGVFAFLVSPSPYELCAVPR
Method: Table 6 In vitro liver metabolic stability and activity against CYPs of potent analogues. | column: CYP % Activity at 10 μM / 2D6

[7] = tested on: cyclinK; test: Western blot of cyclinK in SK-Br3 cells; assay type: cell-based, human; conditions: 2 h
Method: (§2) The proteins were transferred to nitrocellulose membrane (Gelman Sciences, Ann Arbor, MI, USA) by electroblotting. The membranes were blocked with 5% non-fat dry milk (MB Cell, Seoul, Korea), incubated with primary antibodies for overnight at 4 °C. After the washing steps were performed with TBST solution, the membranes were incubated with HRP-conjugated secondary antibodies for 1 h at rt. After the secondary washing steps using TBST solution, protein bands on the membranes were visualized using enhanced chemiluminescence ECL detection reagent (Biorad Laboratories, Hercules, CA, USA).

[8] = tested on: Pol II p-CTD (Ser2); test: Western blot of Pol II p-CTD (Ser2) in SK-Br3 cells; assay type: cell-based, human; conditions: 2 h
Text: (§3) For Western blot analysis, the following antibodies were used: anti-Pol II CTD (2629S, Cell Signaling Technology, Danvers, MA, USA), anti-Pol II p-CTD (Ser2) (13499S, Cell Signaling Technology), anti-cyclinK (A301-939A-M, Bethyl Laboratories), anti-IRS1 (3407S, Cell Signaling Technology), anti-WNT1 (SC-514531, Santa Cruz Biotechnology, Dallas, TX, USA), anti-β-actin (MAB1501R, Millipore, Burlington, MA, USA), and horseradish peroxidase (HRP)-conjugated secondary antibodies (anti-mouse GTX213112-01; anti-rabbit GTX213110-01) (Genetex, Irvine, CA, USA).
as §2, with “Cells were lysed with lysis buffer containing 50 mM Tris pH 7.4, 150 mM NaCl, 1 mM EDTA, 1% NP-40, and 0.25% sodium deoxycholate supplemented with protease-inhibitor and phosphatase-inhibitor cocktails. The lysate samples (25 μg/lane) were loaded onto 6–12% sodium dodecyl sulfate polyacrylamide gel and separated by electrophoresis (SDS-PAGE). The proteins” for “The proteins”

[9] = tested on: cyclinK; test: Western blot of cyclinK in HCC1954 cells; assay type: cell-based, human; conditions: 40 and 200 nM (dinaciclib 40 nM), 2 h
Method: as §2

[10] = tested on: Pol II p-CTD (Ser2); test: Western blot of Pol II p-CTD (Ser2) in HCC1954 cells; assay type: cell-based, human; conditions: 40 and 200 nM (dinaciclib 40 nM), 2 h
Text: as §3
as §2, with “Cells were lysed with lysis buffer containing 50 mM Tris pH 7.4, 150 mM NaCl, 1 mM EDTA, 1% NP-40, and 0.25% sodium deoxycholate supplemented with protease-inhibitor and phosphatase-inhibitor cocktails. The lysate samples (25 μg/lane) were loaded onto 6–12% sodium dodecyl sulfate polyacrylamide gel and separated by electrophoresis (SDS-PAGE). The proteins” for “The proteins”

[11] = tested on: IRS1; test: Western blot of IRS1 in SK-Br3 cells; assay type: cell-based, human; conditions: 40 and 200 nM, 24 h
Text: as §3
(§4) Cells were lysed with lysis buffer containing 50 mM Tris pH 7.4, 150 mM NaCl, 1 mM EDTA, 1% NP-40, and 0.25% sodium deoxycholate supplemented with protease-inhibitor and phosphatase-inhibitor cocktails. The lysate samples (25 μg/lane) were loaded onto 6–12% sodium dodecyl sulfate polyacrylamide gel and separated by electrophoresis (SDS-PAGE). The proteins were transferred to nitrocellulose membrane (Gelman Sciences, Ann Arbor, MI, USA) by electroblotting. The membranes were blocked with 5% non-fat dry milk (MB Cell, Seoul, Korea), incubated with primary antibodies for overnight at 4 °C. After the washing steps were performed with TBST solution, the membranes were incubated with HRP-conjugated secondary antibodies for 1 h at rt. […]

[12] = tested on: IRS1; test: Western blot of IRS1 in HCC1954 cells; assay type: cell-based, human; conditions: 40 and 200 nM, 24 h
Text: as §3, §4

[13] = tested on: WNT1; test: Western blot of WNT1 in HCC1954 cells; assay type: cell-based, human; conditions: 40 and 200 nM, 24 h
Text: as §3, §4

[14] = 72 h, means and standard deviations from three independent assays, read-out: HCC1954 (GI50/μM)
[15] = 72 h, means and standard deviations from three independent assays, read-out: SK-Br3 (GI50/μM)
[16] = SK-Br3 cells, 40 and 200 nM (dinaciclib 40 nM)

| SMILES | GI50 [1, 14] | GI50 ([1]; read-out: HCC1954 GI50) | GI50 [2, 15] | GI50 ([2]; read-out: SK-Br3 GI50) | CYP % Activity at 10 μM 1A2 [3] | CYP % Activity at 10 μM 2C9 [4] | CYP % Activity at 10 μM 2C19 [5] | CYP % Activity at 10 μM 2D6 [6] | cyclinK level (Western blot) [7, 16] | PolII p-CTD (Ser2) level (Western blot) [8, 16] | cyclinK level (Western blot) [9] | PolII p-CTD (Ser2) level (Western blot) [10] | IRS1 expression level (Western blot) [11] | IRS1 expression level (Western blot) [12] | WNT1 expression level (Western blot) [13] | cyclinK level (Western blot) ([7]; SK-Br3 cells, 0.2, 1 μM) | PolII p-CTD (Ser2) level (Western blot) ([8]; SK-Br3 cells, 0.2, 1 μM) |
| --- | --- | --- | --- | --- | --- | --- | --- | --- | --- | --- | --- | --- | --- | --- | --- | --- | --- |
| CCn1cnc2c(NCc3ccc(-c4ccccn4)nc3)nc(-c3ccc(N)nc3)nc21 [Compound 30d, N-([2,2′-Bipyridin]-5-ylmethyl)-2-(6-aminopyridin-3-yl)-9-ethyl-9H-purin-6-amine] | 0.036 ± 0.005 µM | 0.034 to 0.036 µM | 0.046 ± 0.007 µM | 0.046 to 0.052 µM | 74.7% | 57.9% | 68.1% | 81.0% | greatly downregulated in a dose-dependent manner | strong, dose-dependent suppression | greatly downregulated in a dose-dependent manner | strong, dose-dependent suppression | strong suppression of IRS1 and WNT1 | strong suppression of IRS1 and WNT1 | strong suppression of IRS1 and WNT1 | – | – |
| CCn1cnc2c(NCc3ccc(-c4ccccn4)nc3)nc(-c3cnc(N)nc3)nc21 [Compound 30e, N-([2,2′-Bipyridin]-5-ylmethyl)-2-(2-aminopyrimidin-5-yl)-9-ethyl-9H-purin-6-amine] | 0.034 ± 0.002 µM | 0.034 to 0.036 µM | 0.052 ± 0.003 µM | 0.046 to 0.052 µM | 87.6% | 81.6% | 72.6% | 92.1% | greatly downregulated in a dose-dependent manner | strong, dose-dependent suppression | greatly downregulated in a dose-dependent manner | strong, dose-dependent suppression | strong suppression of IRS1 and WNT1 | strong suppression of IRS1 and WNT1 | strong suppression of IRS1 and WNT1 | – | – |
| CCc1cnn2c(NCc3ccc[n+]([O-])c3)cc(N3CCCC[C@H]3CCO)nc12 [Dinaciclib] | 0.012 ± 0.001 µM | – | 0.012 ± 0.001 µM | – | – | – | – | – | only a marginal downregulation of cyclinK | more potent inhibition of PolII CTD phosphorylation | only a marginal downregulation of cyclinK | more potent inhibition of PolII CTD phosphorylation | – | – | – | marginal activity in downrgulating cyclinK | strongly suppressed PolII p-CTD |
